Data taken from patent US20110144303A1, “Biologically Active Peptidomimetic Macrocycles” (AILERON Therapeutics, Inc., priority 2008, published 2011).
Like-named read-outs stand apart in the source and are kept apart here. Starred links: 1 amine or outer side, 2 acyl side, 3 side chain; linkers in the order of their positions; H or OH if unused. Positions of bridges follow the written chain, without caps; N, C: chain ends. Non-standard residues stand in square brackets, D forms with d. Residues, ends and D or L forms follow the SMILES beside them. Nle(6-ylidene) = O=C([C@H](CCCC=[*:3])N[*:1])[*:2]; S5 = C=CCCC[C@](C)(N)C(=O)O; Nle = CCCC[C@H](N)C(=O)O

Key:
[1] = Pepsin Stability: (E/S 1:50)
Description: Table printed on a drawing sheet, Figure 12
Title: Pepsin Stability: (E/S 1:50)
The patent's description of the figure: FIG. 12 describes the comparative pepsin stability of SP-1 and SP-35 peptidomimetic macrocycles of the invention.
First reader's note: The title is printed over the plot below the table; the rate constants and half-lives describe degradation by pepsin, and the time points used are on the plot's Time (min) axis.

[2] = Pharmacokinetics of SP-1 and SP-35 in Rat following IV dose; details: for Cmax / MRT / half-life: rat, in vivo, iv
Description: Table printed on a drawing sheet, Figure 18
Title: Pharmacokinetics of SP-1 and SP-35 in Rat following IV dose
The patent's description of the figure: FIG. 18 illustrates the pharmacokinetic properties of SP-1 and SP-35 peptidomimetic macrocycles in rats.
First reader's note: The title stands over the plot above the table and applies to both: rat, IV dose.

[3] = target: T1, GST-Bcl-XL (Homo sapiens, UniProt Q07817); assay: Kd
T1 construct: GST
Method: Table printed on a drawing sheet, Figure 7
The patent's description of the figure: FIG. 7 depicts binding properties to GST-Bcl-XL of SP-1 and SP-35 peptidomimetic macrocycles.
First copying reader's note: The table stands beside a saturation binding plot (2 µM receptor, 1x PBS + 5 mM CHAPS, 2.5% DMSO) whose legend names GST-Bcl-xL as the receptor for both peptides.
Where the first naming reader finds the target: description_of_the_figure: FIG. 7 depicts binding properties to GST-Bcl-XL of SP-1 and SP-35 peptidomimetic macrocycles.

[4] = target: GST-Bcl-2; assay: Kd
Method: Table printed on a drawing sheet, Figure 8
The patent's description of the figure: FIG. 8 depicts binding properties to GST-Bcl-2 of SP-1 and SP-35 peptidomimetic macrocycles.
First copying reader's note: The Kd values belong to the plot beside the table, titled 'Saturation Binding Curves vs. 2 µM Receptor, 1x PBS + 5 mM CHAPS, 2.5% DMSO', whose legend names the receptor as GST-Bcl-2.
Where the first naming reader finds the target: description_of_the_figure: FIG. 8 depicts binding properties to GST-Bcl-2 of SP-1 and SP-35 peptidomimetic macrocycles.

[5] = target: T2, Bcl-xL (Homo sapiens, UniProt Q07817); assay: Protein-ligand binding experiment for Bcl-xL (SEC-LC-MS affinity selection); details: 1 μM SP-4 and 5 μM Bcl-xL in PBS, 2.5% DMSO, 60 min at room temperature
T2 construct: GST
Method: Protein-ligand binding experiments for Bcl-xL. Simple protein-ligand binding experiments were conducted using the following representative procedure outlined for a simple system-wide control experiment using 1 μM SP-4 and 5 μM Bcl-xL. A 1 μL DMSO aliquot of a 40 μM stock solution of SP-4 is dissolved in 19 μL of PBS (Phosphate-buffered saline: 50 mM, pH 7.5 Phosphate buffer containing 150 mM NaCl). The resulting solution is mixed by repeated pipetting and clarified by centrifugation at 10 000 g for 10 min. To a 4 μL aliquot of the resulting supernatant is added 4 μL of 10 μM BCL-xL in PBS. Each 8.0 μL experimental sample thus contains 40 pmol (1.5 μg) of protein at 5.0 μM concentration in PBS plus 1 μM SP-4 and 2.5% DMSO. Duplicate samples thus prepared for each concentration point are incubated for 60 min at room temperature, and then chilled to 4° C. prior to size-exclusion chromatography-LC-MS analysis of 5.0 μL injections. Samples containing a target protein, protein-ligand complexes, and unbound compounds are injected onto an SEC column, where the complexes are separated from non-binding component by a rapid SEC step. The SEC column eluate is monitored using UV detectors to confirm that the early-eluting protein fraction, which elutes in the void volume of the SEC column, is well resolved from unbound components that are retained on the column. […]

[6] = Pharmacokinetics of SP-4 and SP-54 in Rats following IV dose
Description: Table printed on a drawing sheet, Figure 19
Title: Pharmacokinetics of SP-4 and SP-54 in Rats following IV dose
The patent's description of the figure: FIG. 19 illustrates the pharmacokinetic properties of SP-4 and SP-54 peptidomimetic macrocycles in rats.
First reader's note: Pharmacokinetic parameters in rats after IV dosing; the table is printed under a concentration-time plot that is not copied.

[7] = target: GST-Mcl-1; assay: Kd
Method: Table printed on a drawing sheet, Figure 4
The patent's description of the figure: FIG. 4 depicts binding properties to GST-Mcl-1 of SP-4 and SP-54 peptidomimetic macrocycles.
First copying reader's note: Kd values belong to the adjacent saturation binding plot (stapled peptides + GST-Mcl-1, 2 µM receptor, 1x PBS + 5 mM CHAPS, 2.5% DMSO).
Where the first naming reader finds the target: description_of_the_figure: FIG. 4 depicts binding properties to GST-Mcl-1 of SP-4 and SP-54 peptidomimetic macrocycles.

[8] = target: GST-Bcl-2; assay: Kd; remark: listed apart in the source
Method: Table printed on a drawing sheet, Figure 5
The patent's description of the figure: FIG. 5 depicts binding properties to GST-Bcl-2 of SP-4 and SP-54 peptidomimetic macrocycles.
First copying reader's note: Kd values belong to the plot beside the table, titled 'Saturation Binding Curves vs. 2 µM Receptor, 1x PBS + 5 mM CHAPS, 2.5% DMSO', with GST-Bcl-2 as the receptor.
Where the first naming reader finds the target: description_of_the_figure: FIG. 5 depicts binding properties to GST-Bcl-2 of SP-4 and SP-54 peptidomimetic macrocycles.

T1 sequence (Q07817 whole entry, looked up): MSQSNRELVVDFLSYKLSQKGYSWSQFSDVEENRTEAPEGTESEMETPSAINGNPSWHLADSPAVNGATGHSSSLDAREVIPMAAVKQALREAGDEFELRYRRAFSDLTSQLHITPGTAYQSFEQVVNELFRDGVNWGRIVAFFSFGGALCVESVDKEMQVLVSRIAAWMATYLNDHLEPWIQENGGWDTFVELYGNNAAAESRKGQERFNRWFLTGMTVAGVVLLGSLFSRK
T2 sequence (Q07817 whole entry, species assumed): as the sequence (Q07817 whole entry, looked up) above

Compound: CCCC[C@H](NC(=O)[C@]1(C)CCCC=CCCC[C@](C)(NC(=O)[C@H](C)NC(=O)[C@H](CC(C)C)NC(=O)[C@H](Cc2c[nH]cn2)NC(=O)[C@H](CCCNC(=N)N)NC(=O)[C@H](C)NC(=O)[C@@H](NC(=O)[C@H](CC(N)=O)NC(=O)[C@H](CCCNC(=N)N)NC(=O)[C@@H](NC(=O)[C@@H](NC(=O)[C@H](CC(=O)O)NC(C)=O)[C@@H](C)CC)[C@@H](C)CC)[C@@H](C)CC)C(=O)N[C@@H](C(C)C)C(=O)NCC(=O)N[C@@H](CC(=O)O)C(=O)N1)C(=O)N[C@@H](CC(=O)O)C(=O)N[C@@H](CCCNC(=N)N)C(=O)N[C@@H](CO)C(=O)N[C@H](C(N)=O)[C@@H](C)CC [SP-1, Ac-DIIRNIARHLA$VGD$NleDRSI-NH2] (Ac-DIIRNIARHLA[S5]VGD[S5][Nle]DRSI-NH2; staple 12-16)
- K1 min^-1 [1]: 0.0084 min⁻¹
- half-life^1 [1]: 1.38 h
- AUC,inf [2]: 72000 ng·h/mL
- Vss [2]: 0.098 L/kg
- Vz [2]: 0.274 L/kg
- Cmax [2]: 37000 ng/mL
- MRT [2]: 2.2 h
- half-life [2]: 4.3 h
- Kd [3]: 43 nM
- Kd [4]: 1600 nM

Compound: CC[C@H](C)[C@H](NC(C)=O)C(=O)N[C@@H](Cc1c[nH]c2ccccc12)C(=O)N[C@H](C(=O)N[C@@H](C)C(=O)N[C@@H](CCC(N)=O)C(=O)N[C@@H](CCC(=O)O)C(=O)N[C@@H](CC(C)C)C(=O)N[C@@H](CCCNC(=N)N)C(=O)N[C@@]1(C)CCCC=CCCC[C@@](C)(C(=O)N[C@@H](Cc2ccccc2)C(=O)N[C@@H](CC(N)=O)C(=O)N[C@@H](C)C(=O)N[C@@H](Cc2ccc(O)cc2)C(=O)N[C@@H](Cc2ccc(O)cc2)C(=O)N[C@@H](C)C(=O)N[C@@H](CCCNC(=N)N)C(=O)N[C@@H](CCCNC(=N)N)C(N)=O)NC(=O)[C@H](CC(=O)O)NC(=O)CNC(=O)[C@H]([C@@H](C)CC)NC1=O)[C@@H](C)CC [SP-4, Ac-IWIAQELR$IGD$FNAYYARR-NH2]
- detection of the protein-ligand complex by ESI-MS after size-exclusion chromatography [5]: detection of the protein-ligand complex
- AUC,inf [6]: 38000 ng·h/mL
- Cl [6]: 1.37 mL/min/kg
- Vss [6]: 0.263 L/kg
- Vz [6]: 0.728 L/kg
- Cmax ([6]; rat, in vivo, iv): 18100 ng/mL
- MRT ([6]; rat, in vivo, iv): 3.1 h
- Kd [7]: 7 nM
- Kd [8]: 26 nM

Compound: CCCC[C@H](NC(=O)[C@@H]1CCCC=CCCC[C@H](NC(=O)[C@H](C)NC(=O)[C@H](CC(C)C)NC(=O)[C@H](Cc2c[nH]cn2)NC(=O)[C@H](CCCNC(=N)N)NC(=O)[C@H](C)NC(=O)[C@@H](NC(=O)[C@H](CC(N)=O)NC(=O)[C@H](CCCNC(=N)N)NC(=O)[C@@H](NC(=O)[C@@H](NC(=O)[C@H](CC(=O)O)NC(C)=O)[C@@H](C)CC)[C@@H](C)CC)[C@@H](C)CC)C(=O)N[C@@H](C(C)C)C(=O)NCC(=O)N[C@@H](CC(=O)O)C(=O)N1)C(=O)N[C@@H](CC(=O)O)C(=O)N[C@@H](CCCNC(=N)N)C(=O)N[C@@H](CO)C(=O)N[C@H](C(N)=O)[C@@H](C)CC [SP-35, Ac-DIIRNIARHLA#VGD#NleDRSI-NH2] (Ac-DIIRNIARHLA[Nle(6-ylidene)]VGD[Nle(6-ylidene)][Nle]DRSI-NH2; staple 12-16)
- K1 min^-1 [1]: 0.15 min⁻¹
- K2 min^-1 [1]: 0.0430 min⁻¹
- half-life^1 [1]: 0.0767 h
- half-life^2 [1]: 0.267 h
- AUC,inf [2]: 15400 ng·h/mL
- Cl [2]: 3.25 mL/min/kg
- Vss [2]: 0.132 L/kg
- Vz [2]: 2.025 L/kg
- Cmax [2]: 32200 ng/mL
- MRT [2]: 0.68 h
- half-life [2]: 2.1 h
- Kd [3]: > 10000 nM
- Kd [4]: > 10000 nM

Compound: CC[C@H](C)[C@H](NC(C)=O)C(=O)N[C@@H](Cc1c[nH]c2ccccc12)C(=O)N[C@H](C(=O)N[C@@H](C)C(=O)N[C@@H](CCC(N)=O)C(=O)N[C@@H](CCC(=O)O)C(=O)N[C@@H](CC(C)C)C(=O)N[C@@H](CCCNC(=N)N)C(=O)N[C@H]1CCCC=CCCC[C@@H](C(=O)N[C@@H](Cc2ccccc2)C(=O)N[C@@H](CC(N)=O)C(=O)N[C@@H](C)C(=O)N[C@@H](Cc2ccc(O)cc2)C(=O)N[C@@H](Cc2ccc(O)cc2)C(=O)N[C@@H](C)C(=O)N[C@@H](CCCNC(=N)N)C(=O)N[C@@H](CCCNC(=N)N)C(N)=O)NC(=O)[C@H](CC(=O)O)NC(=O)CNC(=O)[C@H]([C@@H](C)CC)NC1=O)[C@@H](C)CC [SP-54, Ac-IWIAQELR#IGD#FNAYYARR-NH2]
- AUC,inf [6]: 12700 ng·h/mL
- Cl [6]: 4.02 mL/min/kg
- Vss [6]: 0.126 L/kg
- Vz [6]: 1.206 L/kg
- Cmax ([6]; rat, in vivo, iv): 27100 ng/mL
- MRT ([6]; rat, in vivo, iv): 0.52 h
- half-life ([6]; rat, in vivo, iv): 1 h
- Kd [7]: 22 nM
- Kd [8]: 97 nM
